# Data from patent publication US12410174B1, “Small molecular inhibitors of sting signaling compositions and methods of use” (TYERELL IMMUNOTHERAPEUTICS INC, priority 2020, dated 2025).
# “Also recorded” adds a separate entry of the source.
# Key:
# STING signaling [1] = experiment: IFNβ ELISA in normal hTERT cells after ISD transfection; format: cell-based, human
# Experimental: Example 9: Interferon β Elisa analysis: Interferon β Elisa was performed using either the IFNβ human ELISA Kit from Invitrogen or the Human IFNβ ELISA Kit from PBL Interferon Source following the manufacturer's protocol.
# STING signaling [2] = experiment: Luciferase live cell assay, type I IFN promoter in hTERT-pIFNβ-Glu cells after ISD transfection; format: cell-based, human; conditions: hTERT-pIFNβ-Glu cells
# Experimental: Inhibition of IFNβ expression was measured by Luciferase induction at 24 hours after transfection of ISD, Mock is shown (210), ISD treatment only (220) was used as a control, according to an embodiment of the invention;
# Example 1: Identification of small molecule antagonists of STING. In the presence of cytosolic DNA species, STING becomes activated to drive the transcription of cytokines such as type I IFN. Compounds binding to STING via TSA were subsequently examined for their ability to prevent cytosolic DNA species from activating the type I interferon (IFN) promoter, using a live cell assay. This assay comprised immortalized human fibroblasts that were stably transfected with the type I IFN promoter driving luciferase as well as the CMV promoter driving SEAP (hTERT-pIFNβ-Glu). The live cell assay has previously been disclosed in PCT/JS2019/025380 entitled IFN-βETA REPORTER SYSTEM FOR IMMORTALIZED PRIMARY CELLS inventor Glen N. Barber, which was filed Apr. 2, 2018 and published as WO2019195285, and which is herein incorporated by reference in its entirety and for all purposes. The ability of the small molecules to prevent activation of the type I IFN promoter and the transcription of luciferase, but not SEAP in response to cytosolic DNA species was assessed. The activation of STING, typically by CDNs, in turn activates the transcription factors NF-κB and IRF3, both of which are required to induce the transcriptional stimulation of the Type I IFN promoter, but not the CMV promoter as IRF3 and NF-kB transcription factor binding sites are not contained in the CMV promoter. The assay identified the small molecule Compound Y1 in the first screen (HTS), where the level of luciferase was not able to activate the type I IFN promoter or induce the expression of luciferase (see Table I).
# Example 4: hTERT-BJ1 Telomerase Fibroblasts (hTERT) were originally purchased from Clontech and were cultured in 4:1 ratio of DMEM:Medium 199 supplement with 10% FBS, 4 mM L-Glutamine and 1 mM sodium pyruvate at 37° C. in a 5% CO2-humidified atmosphere. hTERT-BJ1 Telomerase Fibroblasts stably expressing the luciferase gene under the control of the interferon-beta promoter and SEAP gene under control of the CMV promoter) (hTERT-pIFNβ-Glu) were generated by the Barber laboratory.
# Example 7: Luciferase assay: hTERT-BJ1 Telomerase Fibroblasts stably expressing the luciferase gene under the control of the interferon-beta promoter and SEAP gene under control of the CMV promoter) (hTERT-pIFNβ-Glu) were generated by the Barber laboratory. Luciferase assay was performed using Secrete-Pair Dual Luminescence Assay Kit from GeneCopoeia following the manufacturer's protocol.
# [3] = test system: TREX1-deficient macrophages; experiment: qPCR of Cxcl10 in TREX1 knockout (TKO) bone marrow derived macrophages; format: cell-based, mouse; conditions: TKO BMDM, compared to DMSO control
# Experimental: MEFs were obtained from E13.5 embryos by a standard procedure. Bone Marrow Derived Macro-phages (BMDM) were isolated from hind-limb femurs of 8-10 weeks old WT and Trex1 KO (TKO) mice. The hematopoietic cells from the bone marrow were cultured in complete DMEM (Invitrogen) including 10 ng/ml of Mouse Recombinant Colony-Stimulating Factor (M-CSF, R&D Systems) for 10 to 14 days.
# Example 11: qPCR total RNA were reverse-transcribed using M-MLV Reverse Transcriptase (Promega). Real-time PCR was performed using Taqman Gene Expression Assay (Applied Biosystems) for innate immune genes and inflammatory cytokines.
# TREX1-deficient mice = experiment: Treatment of TREX1 knockout (TKO) mice: survival and heart histopathology; format: in vivo, mouse
# Experimental: Example 12: Mouse Treatment: Trex1 Hetero knockout mice (Trex1^+/−) were generated by crossing the hetero mice. Mouse genotypes from tail biopsies were determined using Real Time PCR with specific probes designed for each gene by commercial vendor (Transnetyx). Trex1 KO (TKO) mice (4-5 weeks old) were intraperitoneally injected with 25 μg Z811 per mouse in 200 μL 1% DMSO in PBS. The mice were injected three times a week for 5 months. The survival rates were evaluated.
# Example 13: Histopathology. Mice are sacrificed and the heart tissues were fixed in 10% formalin for 48 hours.
# STING signaling [4] = experiment: Confocal analysis of STING trafficking and IRF3 translocation in hTERT cells; format: cell-based, human; conditions: 6 hours after ISD transfection
# Experimental: FIG. 2E are photographs showing confocal analysis of STING trafficking using anti-Sting performed at 6 hours after ISD transfection with Y1+220/without 220, Mock is shown (210), ISD treatment only (220) was used as control, treatment same as in FIG. 2A, according to an embodiment of the invention;
# Example 10: Immunofluorescence Microscopy: Cells were cultured and treated in their appropriate media on Lab-Tek II chamber slides. Cell were fixed with 4% paraformaldehyde for 15 minutes in at 37° C. and permeabilized with 0.05% Triton X-100 for 5 minutes at room temperature. Immunostaining was performed with rabbit-anti-STING polyclonal, rabbit-anti-IRF3 (Santa Cruz Biotechnology) or rabbit-anti-p65 (Cell Signaling) followed by fluorescence conjugated secondary antibodies (FITC-goat-anti-rabbit) (Invitrogen).
smiles,measurement,setting,value
"N#Cc1c(NC(=O)c2ccccc2Cl)n(Cc2ccccc2)c2nc3ccccc3nc12 [Compound Y1, N-{1-benzyl-3-cyano-1H-pyrrolo[2,3-ß]quinoxalin-2-yl}-2-chlorobenzamide]",IFNβ production (ELISA),STING signaling [1],dramatically decreased IFNβ expression and production
same,inhibition of activation of the type I IFN promoter (luciferase induction),"STING signaling [2]; 10 μM and 50 μM, ISD 3 μg/ml, 24 hours after transfection",inhibited activation of the type I IFN promoter; also recorded: exhibited inhibition of the activation of the type I IFN promoter
same,inhibitory activity of the type I IFN promoter (luciferase induction),"STING signaling [2]; 50 μM or 25 μM, in response to ISD",showed robust inhibitory activity of the type I IFN promoter
same,Cxcl10 expression / cytokine production in TREX1-deficient macrophages (qPCR),[3],can repress cytokine production in TREX1-defective cells; also recorded: dramatically decreased; also recorded: inhibits TREX1 dependent Cxcl10 expression
same,inflammation in the heart (H&E staining),TREX1-deficient mice,Less inflammation in the heart
same,survival of TREX1-deficient mice,"TREX1-deficient mice; intraperitoneal, 25 μg/mouse, 5 months, compared to mock treated",survival was significantly improved over several months; also recorded: extended the life of TREX1-deficient mice
same,IRF3 translocation (confocal analysis),STING signaling [4],able to prevent
same,STING trafficking (confocal analysis),STING signaling [4],effectively preventing STING trafficking; also recorded: able to prevent
